Results on seven compounds are retold here after ChEMBL document CHEMBL1152096 (Bioorg Med Chem Lett, 1992).

The species named for experiment [1] is Rattus norvegicus. Put plainly: Evaluated for the muscarinic potency in rat superior cervical ganglion. Type of experiment: functional.
Experiment [2] is filed under the species Rattus norvegicus. Put plainly: Evaluated for the muscarinic potency in rat hippocampal slice preparations. Type of experiment: functional, Hippocampus.
The species named for experiment [3] is Cavia porcellus. Put plainly: Evaluated for the percent efficacy in guinea pig ileum contraction model. Type of experiment: functional.
The species entered for experiment [4] is Rattus norvegicus. The experiment can be described thus: Evaluated for the percentage efficacy in rat superior cervical ganglion. Type of experiment: functional.
The species entered for experiment [5] is Cavia porcellus. The experiment can be described thus: Evaluated for the muscarinic potency in guinea pig ileum contraction model. Type of experiment: functional.
The target in experiment [6] is T1, Muscarinic acetylcholine receptor M1 (Rattus norvegicus, UniProt P08482).
T1 sequence (P08482 whole entry): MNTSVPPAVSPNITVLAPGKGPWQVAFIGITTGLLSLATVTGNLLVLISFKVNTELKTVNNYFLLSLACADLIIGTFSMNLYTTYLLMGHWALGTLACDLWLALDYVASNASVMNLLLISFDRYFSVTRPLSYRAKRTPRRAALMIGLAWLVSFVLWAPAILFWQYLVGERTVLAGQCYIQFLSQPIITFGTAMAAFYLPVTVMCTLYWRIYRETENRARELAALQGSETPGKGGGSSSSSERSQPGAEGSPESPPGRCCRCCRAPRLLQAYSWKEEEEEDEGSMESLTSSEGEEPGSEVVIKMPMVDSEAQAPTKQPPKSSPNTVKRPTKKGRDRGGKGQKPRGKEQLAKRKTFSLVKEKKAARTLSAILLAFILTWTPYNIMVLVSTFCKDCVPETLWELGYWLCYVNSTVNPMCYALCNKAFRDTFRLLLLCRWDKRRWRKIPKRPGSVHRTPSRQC
The experiment can be described thus: Evaluated for inhibition of binding of [3H]pirenzepine to homogenized rat cerebral cortex membranes. Type of experiment: cell membranes, Membrane.

For experiment [7], the species on record is Rattus norvegicus. Put plainly: Evaluated for the percentage efficacy in rat hippocampal slice preparations. Type of experiment: functional, Hippocampus.
The species entered for experiment [8] is Rattus norvegicus. The experiment can be described thus: Evaluated for the muscarinic potency in depolarizations of rat superior cervical ganglion. Type of experiment: functional.
The species entered for experiment [9] is Rattus norvegicus. The experiment can be described thus: Evaluated for the percentage efficacy in depolarizations of rat superior cervical ganglion. Type of experiment: functional.

As to `COC(=O)[C@H]1C[C@H]2C[C@@H]1N(C)C2`, the pD2 is given as 5.9 in the experiment listed under Rattus norvegicus [1], below 4 in the experiment listed under Rattus norvegicus [2] and 4.9 in the experiment filed under Cavia porcellus [5]. In addition, the Efficacy in the experiment listed under Cavia porcellus [3] was 68%; in the experiment filed under Rattus norvegicus [4] it was 71%. In addition, the IC50 (in general, the midpoint of a concentration-inhibition curve) in [6] was 1910 nM.
`COC(=O)C1CC2CNC1C2` (racemic): the results for the Efficacy in the experiment listed under Rattus norvegicus [7], in the experiment filed under Cavia porcellus [3] and in the experiment filed under Rattus norvegicus [8] were 103%, 91% and 57%, respectively. Besides, the pD2 in the experiment filed under Rattus norvegicus [2] is on record as 5.5; in the experiment filed under Cavia porcellus [5] it was 6.2; in the experiment listed under Rattus norvegicus [8], 6.3. Further, the IC50 in [6] is 1950 nM.
In the case of `COC(=O)C1=CCCN(C)C1` [ARECOLINE], the Efficacy is listed as 100% in the experiment listed under Rattus norvegicus [7], 80% in the experiment listed under Rattus norvegicus [9] and 100% in the experiment filed under Cavia porcellus [3]. In addition, the figures for the pD2 in the experiment filed under Rattus norvegicus [2], in the experiment filed under Cavia porcellus [5] and in the experiment listed under Rattus norvegicus [8] were 6.1, 6.5 and 6.6, respectively.
On to `COC(=O)[C@H]1C[C@@H]2CN[C@H]1C2`, for which the pD2 is on record as below 4 in the experiment filed under Rattus norvegicus [2], 5.2 in the experiment listed under Cavia porcellus [5] and 5.2 in the experiment filed under Rattus norvegicus [8]. Also, the Efficacy amounted to 94% in the experiment listed under Cavia porcellus [3] and 47% in the experiment filed under Rattus norvegicus [8]. The IC50 in experiment [6] was 2570 nM.
Turning to `COC(=O)[C@@H]1C[C@@H]2C[C@H]1N(C)C2`, the Efficacy in the experiment listed under Rattus norvegicus [7] was 33%; in the experiment listed under Rattus norvegicus [8], 70%. The pD2 in the experiment listed under Rattus norvegicus [2] is on record as 5.9; in the experiment listed under Cavia porcellus [5], below 4; in the experiment listed under Rattus norvegicus [8], 4.4. Besides, the IC50 in experiment [6] is 3890 nM.
With `COC(=O)C1CC2CC1N(C)C2` (racemic), the Efficacy in the experiment listed under Rattus norvegicus [7] amounted to 39%; in the experiment filed under Cavia porcellus [3] it was 58%; in the experiment listed under Rattus norvegicus [8], 82%. Moreover, the pD2 in the experiment listed under Rattus norvegicus [2] is reported as 5.4; in the experiment listed under Cavia porcellus [5], 4.2; in the experiment filed under Rattus norvegicus [8], 5. This compound showed an IC50 in experiment [6] of 2820 nM.
For the compound `COC(=O)[C@@H]1C[C@H]2CN[C@@H]1C2`, the Efficacy is 120% in the experiment listed under Rattus norvegicus [7], 120% in the experiment listed under Cavia porcellus [3] and 90% in the experiment filed under Rattus norvegicus [8]. The pD2 in the experiment listed under Rattus norvegicus [2] was 6; in the experiment listed under Cavia porcellus [5], 6; in the experiment listed under Rattus norvegicus [8], 6.7. Moreover, the IC50 in experiment [6] is 1410 nM.
